Substitutions are numbered along the chain they refer to. Like-named read-outs stand apart in the source and are kept apart here.
What was measured:
HilD [1] = target: T1, HilD (Salmonella typhimurium, UniProt P0CL08); assay: biochemical; type: binding; design: made in house; host or cells: E. coli BL21(DE3), pET15b
T1 sequence (P0CL08 1-309): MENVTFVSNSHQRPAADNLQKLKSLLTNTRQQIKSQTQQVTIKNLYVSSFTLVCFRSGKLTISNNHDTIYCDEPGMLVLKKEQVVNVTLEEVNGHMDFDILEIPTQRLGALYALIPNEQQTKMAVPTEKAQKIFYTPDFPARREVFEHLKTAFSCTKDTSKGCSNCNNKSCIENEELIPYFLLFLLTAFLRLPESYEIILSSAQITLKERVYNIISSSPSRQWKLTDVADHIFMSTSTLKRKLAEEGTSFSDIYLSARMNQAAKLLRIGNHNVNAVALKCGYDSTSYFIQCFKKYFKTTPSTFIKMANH
Experimental: (§1) Assays were performed as previously described in detail in Chowdhury et al. ([15], [16]). Briefly, 96-well polystyrene plates coated with various concentrations of fatty acids in coating buffer (0.05 M sodium carbonate-bicarbonate, pH 9.3) were incubated overnight at 4°C. The wells were washed three times with PBS, followed by the addition of 200 μL blocking buffer (1% Ficoll 400 in PBS). […] The wells were washed, incubated with a 1:1,000 dilution of anti-His tag antibody, and incubated at room temperature for an hour. After washing, the wells were incubated with a 1:5,000 dilution of anti-mouse secondary antibody for an hour. Finally, the wells were washed three times with PBS-T (PBS plus 0.1% Tween 20), and 100 μL OPD (o-phenylenediamine) substrate was added. After color development, the reaction was ended with 1 N sulfuric acid and read spectrophotometrically at 490 nm. Data were analyzed in GraphPad Prism. Nonlinear regression was plotted, and one-site total binding was performed to calculate Kd values.
hilD alleles were cloned into pET15b(+), expressed, and purified as described in detail previously ([15]). Briefly, the pET15b-6XHis-hilD or pET15b-6XHis-hilD^Q290A or pET15b-6XHis-hilD^K293A plasmid was transformed into E. coli BL21(DE3) for expression. Transformants were induced with 5 mM IPTG (isopropyl β-D-1-thiogalactopyranoside) for 4 h. Cultures were centrifuged, lysed, treated with TALON beads, and applied to protein purification columns. Bound protein was eluted and confirmed by SDS-PAGE. Following confirmation, eluted samples were dialyzed overnight. The final protein concentration and quality after dialysis were assessed by Bradford estimation and SDS-PAGE.

[2] = tested on: invasion gene sipC expression; assay: sipC::lacZY reporter β-galactosidase assay; type: cell-based; details: no formic acid preincubation; 10 μM c2-HDA, 40 μM oleic acid
Experimental: The β-galactosidase assay was performed using the method of Miller, as previously described in detail ([39]). Miller units were calculated using the following equation: Miller units = (OD420 × 1,000)/(OD600 × t × v), where t is the time (minutes) the reaction was allowed to continue before adding the stop solution, v is the volume of culture (mL) assayed, and OD420 and OD600 are the densities of the cultures at 420 and 600 nm, respectively. All reactions were performed in quadruplicates. Data were analyzed in Excel and plotted in GraphPad Prism.

[3] = tested on: invasion gene hilA expression; assay: hilA-luxCDABE transcriptional reporter luciferase assay; type: cell-based; details: no formic acid preincubation; 500 nM c2-HDA, 40 μM oleic acid, 10 mM propionic acid
Experimental: Salmonella strains carrying luxCDABE reporter plasmids were grown overnight in 5 mL LB broth with appropriate antibiotics. These were subcultured (1:100) in M9 minimal medium with 0.2% glucose and antibiotics for 16 h. […] These were incubated for 3 h at 37°C in an incubator without aeration. Dimethyl sulfoxide (DMSO) or different concentrations of fatty acids were added to the reaction, and replicate aliquots were introduced into the BioTek Synergy H1 microplate reader. Luminescence and OD600 were recorded every half-hour for 24 h. Data were analyzed in GraphPad Prism. For every treatment, the area under the curve (AUC) was calculated. DMSO was normalized to 100%, and other reactions were calculated accordingly.

HilD-hilA complex = target: T2, HilD-hilA complex (Salmonella typhimurium, UniProt P0CL08); assay: EMSA of HilD binding to hilA promoter DNA; details: c2-HDA 20 μM, t2-HDA 40 μM, oleic acid 50 μM; no formic acid
T2 construct: made in house; host or cells: E. coli BL21(DE3), pET15b
T2 sequence (P0CL08 1-309): T1 sequence (P0CL08 1-309)
Experimental: Assays were performed as previously described ([15], [16]). […] Various concentrations of the fatty acids (c2-HDA, 20 μM; t2-HDA, 40 μM; or oleic acid, 50 μM) or control solvents were added, and the reaction was incubated at room temperature for 1 h. Dye solution (10 mM Tris, 1 mM EDTA, 50% vol/vol glycerol, 0.001% wt/vol bromophenol blue) was added to a final concentration of 1×, and samples were separated on 7% acrylamide gels. DNA was stained using SYBR Safe and visualized in a Bio-Rad GelDoc imaging system.

HilD^Q290A = target: T3, HilD^Q290A (Salmonella typhimurium, UniProt P0CL08, Q290A); assay: ELISA binding of fatty acids to mutant HilD^Q290A
T3 construct: made in house; host or cells: E. coli BL21(DE3), pET15b
T3 sequence (P0CL08 1-309 Q290A): T1 sequence (P0CL08 1-309) with Q290A
Experimental: as §1
(§2) hilD alleles were cloned into pET15b(+), expressed, and purified as described in detail previously ([15]). Briefly, the pET15b-6XHis-hilD or pET15b-6XHis-hilD^Q290A or pET15b-6XHis-hilD^K293A plasmid was transformed into E. coli BL21(DE3) for expression. […] The final protein concentration and quality after dialysis were assessed by Bradford estimation and SDS-PAGE.

HilD^K293A = target: T4, HilD^K293A (Salmonella typhimurium, UniProt P0CL08, K293A); assay: ELISA binding of fatty acids to mutant HilD^K293A
T4 construct: made in house; host or cells: E. coli BL21(DE3), pET15b
T4 sequence (P0CL08 1-309 K293A): T1 sequence (P0CL08 1-309) with K293A
Experimental: as §1, §2

HilD [4] = target: T1, HilD; type: cell-based; design: The stability of HilD in Salmonella carrying a chromosomal tetRA-hilD-3×FLAG tag; expressed in transfected cells; host or cells: Salmonella Typhimurium strain CA2446 (tetRA-hilD-3XFLAG attλ:pDX1::hilA'-lacZ)
Experimental: Assays were performed as previously described ([22]). Salmonella strains carrying a chromosomal tetracycline-inducible hilD with a C-terminal 3×FLAG tag and a hilA::lacZY fusion (for invasion gene expression assessment) were grown overnight in LB and then diluted 1:100 into LB buffered with 100 mM MOPS (pH 6.7) with 2.5 μg/mL tetracycline. […] After 1 h of incubation at 37°C with aeration, samples were collected to measure hilA::lacZY expression in a β-galactosidase assay. Individual cultures were then equilibrated to an OD600 of 1. New protein production was halted by adding an antibiotic combination (100 μg/mL rifampin, 200 μg/mL streptomycin, and 50 μg/mL spectinomycin). These cultures were incubated at 37°C with aeration, and 200-μL aliquots were collected every 30 min for 4 h. Samples were lysed in 5× Laemmli buffer, boiled, and immunoblotted with an anti-FLAG antibody to monitor HilD levels.

[5] = HilD preincubated with formic acid (500 μM), read-out: Kd
[6] = HilD without formic acid preincubation, read-out: Kd
[7] = Kd, HilD preincubated with formic acid (500 μM)
[8] = Kd, HilD without formic acid preincubation

Work on `CCCCCCCCCCCCCCCCC/C=C\C(=O)O` [c2-EA] yielded a Kd (HilD [1]; [5]) of 381 µM and a Kd (HilD [1]; [6]) of 96.6 µM.

`CCCCCCCCCCCCC/C=C\C(=O)O` [c2-HDA, cis-2-hexadecenoic acid] was tested, and the “effect on sipC expression” value [2] was “repressed”, the Kd (HilD [1]; [7]) was 82 µM and the Kd (HilD [1]; [8]) was 5.19 µM. The “effect on hilA expression” value [3] was “drastically reduced hilA expression”, the “effect on HilD-hilA complex” value (HilD-hilA complex) was “disrupted the HilD-hilA complex” and the Kd (HilD^Q290A) was 12.6 µM.

With `CCCCCCCC/C=C\CCCCCCCC(=O)O` [oleic acid] the “effect on sipC expression” value [2] was “repressed”, the Kd (HilD [1]; [7]) was 1370 µM and the Kd (HilD [1]; [8]) was 136 µM. The “effect on hilA expression” value [3] was “severely repressed”, the “effect on HilD-hilA complex” value (HilD-hilA complex) was “disrupted the HilD-hilA complex” and the Kd (HilD^K293A) was 119 µM.

`CCC(=O)O` [propionic acid] was tested, and the “effect on hilA expression” value [3] was “severely repressed”.

For `CCCCCCCCCCCCC/C=C/C(=O)O` [t2-HDA], the Kd (HilD [1]; [5]) was 177 µM, the Kd (HilD [1]; [6]) was 15.8 µM and the HilD half-life (HilD [4]; fatty acid 20 μM after preincubation with formic acid (10 mM)) was ~ 127 min. The HilD half-life (HilD [4]; fatty acid 20 μM, no formic acid preincubation (DMSO control ~227 min)) was ~ 28 min and the “effect on HilD-hilA complex” value (HilD-hilA complex) was “disrupted the HilD-hilA complex”.

Source: publication PMC10127606, “Salmonella Invasion Is Controlled by Competition among Intestinal Chemical Signals” (mBio, 2023)
